Each block holds one compound with its values, some of them ahead of it.
Assays:
[1] = molecular target: T1, human D3 dopamine receptor (Homo sapiens, UniProt P35462); experiment: Radioligand binding ([3H]-spiperone) to cloned human D3 receptor, HEK-293 EBNA cell membranes; conditions: 0.5 nM [3H]-spiperone, 1 h at RT, Cheng-Prusoff
T1 construct: expressed in transfected cells; host or cells: HEK-293 EBNA cells, transient transfection; membrane preparation
Protocol: The ability of the compounds to bind to the 5-HT2A, D3 and D2 receptors was determined using radioligand binding to cloned receptors selectively expressed in HEK-293 EBNA cells.
(§1) Membrane Preparation for Human D2, Human D3 and Human 5-HT2A Receptors
(§2) HEK-293 EBNA cells were transiently transfected with expression plasmids encoding for the human D2 or D3 dopamine- or for the human 5-HT2A serotonin receptor, respectively. The cells were harvested 48 h post-transfection, washed three times with cold PBS and stored at −80° C. prior to use. The pellet was suspended in cold 50 mM Tris-HCl buffer containing 10 mM EDTA (pH 7.4) and homogenized with a Polytron (Kinematica AG, Basel, Switzerland) for 20-30 sec at 12.000 rpm. After centrifugation at 48.000×g for 30 min at 4° C., the pellet was resuspended in cold 10 mM Tris-HCl buffer containing 0.1 mM EDTA (pH 7.4), homogenized, and centrifuged as above. This pellet was further resuspended in a smaller volume of ice cold 10 mM Tris-HCl buffer containing 0.1 mM EDTA (pH 7.4) and homogenized with a Polytron for 20-30 sec at 12.000 rpm. The protein content of this homogenate was determined with the Bio-Rad (Bradford) Protein Assay (Biorad Laboratories GmbH, München, Germany) according to the instructions of the manufacturer using gamma globulin as the standard. This homogenate was stored at −80° C. in aliquots and thawed immediately prior to use.
(§3) Radioligand Binding Assay Conditions
(§4) Aliquots of membrane preparations were thawed at RT, resuspended in assay buffer (D2, D3: 50 mM Tris-HCl, 120 mM NaCl, 5 mM MgCl2, 1 mM EDTA, 5 mM KCl, 1.5 mM CaCl2, pH=7.4; 5-HT2A: 50 mM Tris-HCl, 10 mM MgCl2, 1 mM EGTA, pH=7.4), homogenized with a Polytron for 20-30 sec at 12.000 rpm and adjusted to a final concentration of approximately 7.5 μg protein/well (D2, D3) and 15 μg protein/well (5-HT2A), respectively.
(§5) The binding affinity (Ki) of the compounds was determined using radioligand binding. Membranes were incubated in a total volume of 200 μl with a fixed concentration of radioligand (final concentration approximately 0.7 nM [^3H]-spiperone for D2, 0.5 nM [^3H]-spiperone for D3, and 1.1 nM [^3H]-ketanserin for 5-HT2A) and ten concentrations of test compound in ranging between 10 μM-0.1 nM for 1 h at RT. At the end of the incubation, the reaction mixtures were filtered on to unifilter 96-well white microplates with bonded GF/C filters (Packard BioScience, Zürich, Switzerland; preincubated for 1 h in 0.1% polyethylenimine (PEI) in assay buffer) with a Filtermate 196 harvester (Packard BioScience) and washed 3 times with cold assay buffer. The nonspecific binding was determined with equally composed reaction mixtures in the presence of 10 μM unlabeled spiperone. Per well 45 μl of Microscint 40 (Perkin Elmer, Schwerzenbach, Switzerland) was added, plates for sealed, shaken for 20 min and counted for 3 min on a Topcount Microplate Scintillation Counter (Canberra Packard SA, Zürich, Switzerland) with quenching correction.
(§6) The CPM value for each duplicate of a concentration of competing compound was averaged (yl), then the % specific binding was calculated according to the equation (((yl-non-specific)/(total binding-non-specific))×100). Graphs were plotted with the % specific binding using XLfit, a curve fitting program that iteratively plots the data using Levenburg Marquardt algorithm. The single site competition analysis equation used was y=A+((B−A)/(1+((x/C)^D))), where y is the % specific binding, A is the minimum y, B is the maximum y, C is the IC50, x is the log10 of the concentration of the competing compound and D is the slope of the curve (the Hill Coefficient). […] The affinity constant (Ki) was calculated using the Cheng-Prusoff equation Ki=(IC50/1+([L]/Kd), where [L] is the concentration of radioligand and Kd is the dissociation constant of the radioligand at the receptor as determined by the saturation isotherm.

[2] = molecular target: T2, human 5-HT2A serotonin receptor (Homo sapiens, UniProt P28223); experiment: Radioligand binding ([3H]-ketanserin) to cloned human 5-HT2A receptor, HEK-293 EBNA cell membranes; conditions: 1.1 nM [3H]-ketanserin, 1 h at RT, Cheng-Prusoff
T2 construct: expressed in transfected cells; host or cells: HEK-293 EBNA cells, transient transfection; membrane preparation
Protocol: as §1
as §2, with “The” for “HEK-293 EBNA cells were transiently transfected with expression plasmids encoding for the human D2 or D3 dopamine- or for the human 5-HT2A serotonin receptor, respectively. The”
as §3, §4
The binding affinity (Ki) of the compounds was determined using radioligand binding. […] The nonspecific binding was determined with equally composed reaction mixtures in the presence of 10 μM unlabeled spiperone. Per well 45 μl of Microscint 40 (Perkin Elmer, Schwerzenbach, Switzerland) was added, plates for sealed, shaken for 20 min and counted for 3 min on a Topcount Microplate Scintillation Counter (Canberra Packard SA, Zürich, Switzerland) with quenching correction.
as §6

[3] = molecular target: T3, human D2 dopamine receptor (Homo sapiens, UniProt P14416); experiment: Radioligand binding ([3H]-spiperone) to cloned human D2 receptor, HEK-293 EBNA cell membranes; conditions: 0.7 nM [3H]-spiperone, 1 h at RT, Cheng-Prusoff
T3 construct: expressed in transfected cells; host or cells: HEK-293 EBNA cells, transient transfection; membrane preparation
Protocol: as §1, §2, §3, §4, §5, §6

T1 sequence (P35462 whole entry): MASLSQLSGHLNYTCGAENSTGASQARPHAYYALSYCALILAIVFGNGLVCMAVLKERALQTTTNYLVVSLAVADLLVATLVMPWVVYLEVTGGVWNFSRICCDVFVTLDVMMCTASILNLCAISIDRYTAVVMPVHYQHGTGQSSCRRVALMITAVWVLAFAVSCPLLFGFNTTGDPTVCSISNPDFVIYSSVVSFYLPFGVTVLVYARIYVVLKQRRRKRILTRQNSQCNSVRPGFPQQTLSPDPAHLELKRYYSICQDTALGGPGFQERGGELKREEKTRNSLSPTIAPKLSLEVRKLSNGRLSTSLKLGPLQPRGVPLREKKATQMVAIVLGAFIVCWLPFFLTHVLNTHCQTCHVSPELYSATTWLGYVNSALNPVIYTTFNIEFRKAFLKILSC
T3 sequence (P14416 whole entry): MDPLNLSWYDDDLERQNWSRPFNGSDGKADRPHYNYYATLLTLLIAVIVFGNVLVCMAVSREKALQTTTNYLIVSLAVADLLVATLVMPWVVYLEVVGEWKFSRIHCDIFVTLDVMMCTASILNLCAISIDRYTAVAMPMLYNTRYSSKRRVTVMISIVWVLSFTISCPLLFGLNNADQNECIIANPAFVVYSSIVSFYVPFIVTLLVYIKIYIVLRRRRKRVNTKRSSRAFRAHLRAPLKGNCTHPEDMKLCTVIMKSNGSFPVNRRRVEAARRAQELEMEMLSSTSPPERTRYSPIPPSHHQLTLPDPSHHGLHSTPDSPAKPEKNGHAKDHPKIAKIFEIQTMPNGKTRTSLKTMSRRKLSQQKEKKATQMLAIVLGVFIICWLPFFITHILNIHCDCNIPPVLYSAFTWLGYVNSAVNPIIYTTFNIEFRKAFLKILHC
T2 sequence (P28223 whole entry): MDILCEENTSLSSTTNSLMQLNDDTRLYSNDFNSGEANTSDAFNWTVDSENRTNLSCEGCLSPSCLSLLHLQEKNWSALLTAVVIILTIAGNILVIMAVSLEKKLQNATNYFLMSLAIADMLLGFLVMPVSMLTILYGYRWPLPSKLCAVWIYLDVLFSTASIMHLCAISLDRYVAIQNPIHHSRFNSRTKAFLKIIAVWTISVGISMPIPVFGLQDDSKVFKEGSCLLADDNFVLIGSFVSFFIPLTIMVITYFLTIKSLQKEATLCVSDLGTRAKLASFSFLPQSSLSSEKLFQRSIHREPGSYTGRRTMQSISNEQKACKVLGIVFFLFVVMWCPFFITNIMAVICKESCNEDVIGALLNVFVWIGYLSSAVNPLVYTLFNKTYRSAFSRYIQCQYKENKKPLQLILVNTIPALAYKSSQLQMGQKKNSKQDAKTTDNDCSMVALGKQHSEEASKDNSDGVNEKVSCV

Structure (SMILES): O=C(CC1CCC(OC2CCOC2)CC1)N[C@H]1CC[C@H](CCN2CCC(C(=O)c3ccc(F)cc3)CC2)CC1 (mixture of isomers) [Example 17, rac-N-Trans (4-{2-[4-(4-Fluoro-benzoyl)-piperidin-1-yl]-ethyl}-cyclohexyl)-2-[4-(tetrahydro-furan-3-yloxy)-cyclohexyl]-acetamide]
Ki [1]: 40 nM
Ki [2]: 11 nM
Ki [3]: 2610 nM

Structure (SMILES): CCO[C@H]1CC[C@H](CC(=O)N[C@H]2CC[C@H](CCN3CCC(C(=O)c4ccc(F)cc4)CC3)CC2)C1 (racemic) [Example 18, rac-2-(trans-3-Ethoxy-cyclopentyl)-N-trans-(4-{2-[4-(4-fluoro-benzoyl)-piperidin-1-yl]-ethyl}-cyclohexyl)-acetamide]
Ki [1]: 42 nM
Ki [2]: 28 nM
Ki [3]: 1940 nM

Structure (SMILES): COCC1CCC(CC(=O)N[C@H]2CC[C@H](CCN3CCC(C(=O)c4ccc(F)cc4)CC3)CC2)C1 (mixture of isomers) [Example 28, rac-N-trans (4-{2-[4-(4-Fluoro-benzoyl)-piperidin-1-yl]-ethyl}-cyclohexyl)-2-(3-methoxymethyl-cyclopentyl)-acetamide]
Ki [1]: 33 nM
Ki [2]: 7 nM
Ki [3]: 1300 nM

Structure (SMILES): COC1CCC(CCC(=O)N[C@H]2CC[C@H](CCN3CCC(C(=O)c4ccc(F)cc4)CC3)CC2)CC1 (mixture of isomers) [Example 29, rac-N-trans (4-{2-[4-(4-Fluoro-benzoyl)-piperidin-1-yl]-ethyl}-cyclohexyl)-3-(4-methoxy-cyclohexyl)-propionamide]
Ki [1]: 41 nM
Ki [2]: 7 nM
Ki [3]: 1410 nM

Structure (SMILES): CO[C@@H]1CCC[C@@H](CC(=O)N[C@H]2CC[C@H](CCN3CCC(C(=O)c4ccc(F)cc4)CC3)CC2)C1 (single isomer, unassigned) [Example 16, N-trans (4-{2-[4-(4-Fluoro-benzoyl)-piperidin-1-yl]-ethyl}-cyclohexyl)-2-((1R,3R)-3-methoxy-cyclohexyl)-acetamide or N-trans (4-{2-[4-(4-fluoro-benzoyl)-piperidin-1-yl]-ethyl}-cyclohexyl)-2-((1S,3S)-3-methoxy-cyclohexyl)-acetamide]
Ki [1]: 35 nM
Ki [2]: 7 nM
Ki [3]: 1250 nM

Structure (SMILES): C[C@]1(O)CC[C@H](CC(=O)N[C@H]2CC[C@H](CCN3CCC(C(=O)c4ccc(F)cc4)CC3)CC2)CC1 (single isomer, unassigned) [Example 23, N-trans (4-{2-[4-(4-Fluoro-benzoyl)-piperidin-1-yl]-ethyl}-cyclohexyl)-2-(4-trans-hydroxy-4-methyl-cyclohexyl)-acetamide or N-trans (4-{2-[4-(4-fluoro-benzoyl)-piperidin-1-yl]-ethyl}-cyclohexyl)-2-(4-cis-hydroxy-4-methyl-cyclohexyl)-acetamide]
Ki [1]: 49 nM
Ki [2]: 7 nM
Ki [3]: 1300 nM

Structure (SMILES): C[C@]1(O)CC[C@@H](CC(=O)N[C@H]2CC[C@H](CCN3CCC(C(=O)c4ccc(F)cc4)CC3)CC2)CC1 (single isomer, unassigned) [Example 24, N-trans (4-{2-[4-(4-Fluoro-benzoyl)-piperidin-1-yl]-ethyl}-cyclohexyl)-2-(4-cis-hydroxy-4-methyl-cyclohexyl)-acetamide or N-trans (4-{2-[4-(4-fluoro-benzoyl)-piperidin-1-yl]-ethyl}-cyclohexyl)-2-(4-trans-hydroxy-4-methyl-cyclohexyl)-acetamide]
Ki [1]: 43 nM
Ki [2]: 9 nM
Ki [3]: 1200 nM

Structure (SMILES): CO[C@H]1CC[C@@H](CC(=O)N[C@H]2CC[C@H](CCN3CCC(C(=O)c4ccc(F)cc4)CC3)CC2)CC1 [Example 2, N-trans (4-{2-[4-(4-Fluoro-benzoyl)-piperidin-1-yl]-ethyl}-cyclohexyl)-2-cis (4-methoxy-cyclohexyl)-acetamide]
Ki [1]: 28 nM
Ki [2]: 6 nM
Ki [3]: 1510 nM

Structure (SMILES): CO[C@H]1CC[C@H](CC(=O)N[C@H]2CC[C@H](CCN3CCC(C(=O)c4ccc(F)cc4)CC3)CC2)CC1 [Example 3, N-trans (4-{2-[4-(4-Fluoro-benzoyl)-piperidin-1-yl]-ethyl}-cyclohexyl)-2-trans (4-methoxy-cyclohexyl)-acetamide]
Ki [1]: 24 nM
Ki [2]: 6 nM
Ki [3]: 1280 nM

Structure (SMILES): O=C(CC1CCC2(CC1)OCCO2)N[C@H]1CC[C@H](CCN2CCC(C(=O)c3ccc(F)cc3)CC2)CC1 [Example 12, 2-(1,4-Dioxa-spiro[4.5]dec-8-yl)-N-trans (4-{2-[4-(4-fluoro-benzoyl)-piperidin-1-yl]-ethyl}-cyclohexyl)-acetamide]
Ki [1]: 24 nM
Ki [2]: 6 nM
Ki [3]: 1740 nM

Structure (SMILES): CCO[C@H]1CC[C@H](CC(=O)N[C@H]2CC[C@H](CCN3CCC(C(=O)c4ccc(F)cc4)CC3)CC2)CC1 [Example 13, Trans-2-(4-Ethoxy-cyclohexyl)-N-trans (4-{2-[4-(4-fluoro-benzoyl)-piperidin-1-yl]-ethyl}-cyclohexyl)-acetamide]
Ki [1]: 33 nM
Ki [2]: 13 nM
Ki [3]: 1400 nM

Ki [1]: 25 nM
Ki [2]: 5 nM
Ki [3]: 1010 nM
Structure (SMILES): COC[C@H]1CC[C@H](CC(=O)N[C@H]2CC[C@H](CCN3CCC(C(=O)c4ccc(F)cc4)CC3)CC2)CC1 [Example 21, N-trans (4-{2-[4-(4-Fluoro-benzoyl)-piperidin-1-yl]-ethyl}-cyclohexyl)-2-trans (4-methoxymethyl-cyclohexyl)-acetamide]

Structure (SMILES): COC[C@H]1C[C@H](CC(=O)N[C@H]2CC[C@H](CCN3CCC(C(=O)c4ccc(F)cc4)CC3)CC2)C1 [Example 25, N-trans (4-{2-[4-(4-Fluoro-benzoyl)-piperidin-1-yl]-ethyl}-cyclohexyl)-2-trans (3-methoxymethyl-cyclobutyl)-acetamide]
Ki [1]: 27 nM
Ki [2]: 9 nM
Ki [3]: 1860 nM

Structure (SMILES): COC[C@H]1C[C@@H](CC(=O)N[C@H]2CC[C@H](CCN3CCC(C(=O)c4ccc(F)cc4)CC3)CC2)C1 [Example 26, N-trans (4-{2-[4-(4-Fluoro-benzoyl)-piperidin-1-yl]-ethyl}-cyclohexyl)-2-cis (3-methoxymethyl-cyclobutyl)-acetamide]
Ki [1]: 26 nM
Ki [2]: 6 nM
Ki [3]: 2030 nM
